According to PubChem BioAssay (NCI):
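Protocol summary: plate cells (96-well), add compound at 5 concentrations, incubate 48 h, interpolate endpoints linearly. The concentration for 50% growth inhibition is given as GI50. The concentration for full growth arrest is given as TGI.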

How the values were obtained:
Experiment in all cases: NCI-60 cell line screen, 48 h
[1] = test system: 786-0 renal
[2] = test system: COLO 205 colon
[3] = test system: DU-145 prostate
[4] = test system: HCT-15 colon
[5] = test system: OVCAR-8 ovarian
[6] = test system: SK-MEL-5 melanoma
[7] = test system: U251 CNS
[8] = test system: UO-31 renal
[9] = test system: SF-295 CNS

COc1ccc(C2CC(c3cc(OC)c(OC)c(OC)c3)=NO2)cc1OCCCCOc1cc2c(cc1OC)C(=O)N1CCC[C@H]1C=N2 (stereo not given in full)
GI50 [1]: 1.57 µM
TGI [1]: 2.99 µM
GI50 [2]: 1.96 µM
TGI [2]: 4.04 µM
GI50 [3]: 2.48 µM
TGI [3]: 7.43 µM
GI50 [4]: 2.27 µM
TGI [4]: 5.54 µM
GI50 [5]: 2.55 µM
TGI [5]: 7.74 µM
GI50 [6]: 1.47 µM
TGI [6]: 2.79 µM
GI50 [7]: 1.73 µM
TGI [7]: 3.61 µM
GI50 [8]: 2.09 µM
TGI [8]: 6.26 µM

ON/N=C/c1cc2c(cc1Br)OCO2
TGI [1]: > 386 µM
TGI [2]: > 386 µM
TGI [5]: > 386 µM
TGI [9]: > 386 µM
TGI [6]: > 386 µM
TGI [7]: > 386 µM

NC1=NC(=O)/C(=C/c2ccccc2[N+](=O)[O-])C(N)=N1
TGI [1]: > 100 µM
TGI [2]: > 100 µM
TGI [4]: > 100 µM
TGI [5]: > 100 µM
TGI [9]: > 100 µM
TGI [6]: > 100 µM
TGI [7]: > 100 µM
TGI [8]: > 100 µM

O=C(Nc1c(O)[nH]c(=S)[nH]c1=O)c1ccccc1F
TGI [1]: > 100 µM
TGI [2]: > 100 µM
TGI [4]: > 100 µM
TGI [5]: > 100 µM
TGI [9]: > 100 µM
TGI [6]: > 100 µM
TGI [7]: > 100 µM
TGI [8]: > 100 µM

CC(C)(C)OC1=C(OC(C)(C)C)C(O)(c2ccccc2)C1=O (stereo not given)
TGI [1]: > 100 µM
TGI [2]: > 100 µM
TGI [4]: > 100 µM
TGI [5]: > 100 µM
TGI [9]: > 100 µM
TGI [6]: > 100 µM
TGI [7]: > 100 µM
TGI [8]: > 100 µM

COC(=O)C1=C(c2ccc(OC)c(OC)c2)OC(c2ccc(OC)c(OC)c2)C1 (stereo not given)
TGI [1]: > 100 µM
TGI [2]: 36.4 µM
TGI [4]: > 100 µM
TGI [5]: > 100 µM
TGI [9]: > 100 µM
TGI [6]: 34.3 µM
TGI [7]: > 100 µM
TGI [8]: > 100 µM

CN1C(=O)CC(c2cccc(C3CC(=O)N(C)C3=O)n2)C1=O (stereo not given)
TGI [1]: > 100 µM
TGI [2]: > 100 µM
TGI [4]: > 100 µM
TGI [5]: > 100 µM
TGI [9]: > 100 µM
TGI [6]: > 100 µM
TGI [7]: > 100 µM
TGI [8]: > 100 µM

CC(C)(C)NNC(=O)/C(=C/c1ccc([N+](=O)[O-])cc1)NC(=O)c1ccccc1
TGI [1]: > 100 µM
TGI [2]: 79.2 µM
TGI [4]: > 100 µM
TGI [5]: > 100 µM
TGI [9]: > 100 µM
TGI [6]: > 100 µM
TGI [7]: > 100 µM
TGI [8]: > 100 µM

CN(C)c1ccc2c(=O)c3ccccc3oc2n1
TGI [1]: > 100 µM
TGI [2]: > 100 µM
TGI [4]: > 100 µM
TGI [5]: > 100 µM
TGI [9]: > 100 µM
TGI [6]: > 100 µM
TGI [8]: > 100 µM

COc1ccc(C2CC(=O)c3c(O)cc(O)cc3O2)cc1O (stereo not given)
TGI [1]: > 100 µM
TGI [2]: > 100 µM
TGI [4]: > 100 µM
TGI [5]: > 100 µM
TGI [9]: > 100 µM
TGI [6]: > 100 µM
TGI [7]: > 100 µM
TGI [8]: > 100 µM

Cc1ccccc1NC(=O)C(=O)C(C#N)c1ccc(Cl)cc1 (stereo not given)
TGI [1]: > 100 µM
TGI [2]: > 100 µM
TGI [4]: 37.1 µM
TGI [5]: > 100 µM
TGI [9]: > 100 µM
TGI [6]: > 100 µM
TGI [7]: > 100 µM
TGI [8]: > 100 µM

N#Cc1ccccc1NC(=O)/C(=N\N)C(C(=O)c1ccncc1)C1OC(=O)c2ccccc21 (stereo not given)
TGI [1]: > 100 µM
TGI [2]: > 100 µM
TGI [4]: > 100 µM
TGI [5]: > 100 µM
TGI [9]: > 100 µM
TGI [6]: > 100 µM
TGI [7]: > 100 µM
TGI [8]: > 100 µM

Cc1ccc(S(=O)(=O)c2c(N)c3nc4ccccc4n3c3nc4ccccc4nc23)cc1
TGI [1]: > 100 µM
TGI [2]: > 100 µM
TGI [4]: > 100 µM
TGI [5]: > 100 µM
TGI [9]: > 100 µM
TGI [6]: > 100 µM
TGI [7]: > 100 µM
TGI [8]: > 100 µM

O=C1[C@@H]2C(c3ccccc3Br)=NO[C@@H]2C(=O)N1c1ccc(Cc2ccc(N3C(=O)[C@H]4C(c5ccccc5Br)=NO[C@H]4C3=O)cc2)cc1
TGI [1]: > 100 µM
TGI [2]: > 100 µM
TGI [4]: > 100 µM
TGI [5]: > 100 µM
TGI [9]: > 100 µM
TGI [6]: > 100 µM
TGI [7]: > 100 µM
TGI [8]: > 100 µM

C[N+](C)(C)CC1CCCC/C1=N\OC(=O)c1ccccc1 (stereo not given)
TGI [1]: > 100 µM
TGI [2]: > 100 µM
TGI [4]: > 100 µM
TGI [5]: > 100 µM
TGI [9]: > 100 µM
TGI [6]: > 100 µM
TGI [7]: > 100 µM
TGI [8]: > 100 µM

CC(NS(=O)(=O)c1ccc([N+](=O)[O-])cc1)C(=O)O (stereo not given)
TGI [1]: > 100 µM
TGI [2]: > 100 µM
TGI [4]: > 100 µM
TGI [5]: > 100 µM
TGI [9]: > 100 µM
TGI [6]: > 100 µM
TGI [7]: > 100 µM
TGI [8]: > 100 µM

COc1ccccc1NC(=O)c1sc2nc3c(cc2c1N)C(=O)CCC3
GI50 [1]: 4.05 µM
TGI [1]: > 100 µM
GI50 [2]: 2.03 µM
TGI [2]: > 100 µM
GI50 [3]: > 100 µM
TGI [3]: > 100 µM
GI50 [5]: 3.97 µM
TGI [5]: > 100 µM
GI50 [9]: 1.75 µM
TGI [9]: > 100 µM
GI50 [6]: 1.62 µM
TGI [6]: > 100 µM
GI50 [7]: 4.64 µM
TGI [7]: > 100 µM

C/C(CN1C(=O)c2ccccc2C1=O)=N\NS(=O)(=O)c1ccc(C)cc1
TGI [1]: > 100 µM
TGI [2]: > 100 µM
TGI [4]: > 100 µM
TGI [5]: > 100 µM
TGI [9]: > 100 µM
TGI [6]: > 100 µM
TGI [7]: > 100 µM
TGI [8]: > 100 µM

CN1N=CSC12C(=O)N(c1ccc(Cl)cc1)C(=O)N2c1ccc(Cl)cc1 (stereo not given)
TGI [1]: > 100 µM
TGI [2]: 3.38 µM
TGI [5]: > 100 µM
TGI [9]: 9.16 µM
TGI [6]: 15.1 µM
TGI [7]: 53.6 µM
TGI [8]: 8.08 µM

OC(c1cccc(-n2ccc(C(F)(F)F)n2)c1)c1cnccc1NC1CCCCCC1 (stereo not given)
GI50 [1]: 1.72 µM
TGI [1]: 3.18 µM
GI50 [3]: 1.81 µM
TGI [3]: 3.24 µM
GI50 [4]: 1.6 µM
TGI [4]: 3.1 µM
GI50 [5]: 1.92 µM
TGI [5]: 3.93 µM
GI50 [9]: 1.79 µM
TGI [9]: 3.2 µM
GI50 [6]: 1.73 µM
TGI [6]: 3.18 µM
GI50 [7]: 1.66 µM
TGI [7]: 3.24 µM
GI50 [8]: 1.37 µM
TGI [8]: 2.7 µM

COc1cc2c(cc1O)CC[C@@H]1[C@@H]2CC[C@]2(C)[C@@H](NCCN(C)C)CC[C@@H]12
GI50 [1]: 0.383 µM
TGI [1]: 0.831 µM
GI50 [2]: 0.107 µM
TGI [2]: 0.4 µM
GI50 [3]: 0.119 µM
TGI [3]: 0.423 µM
GI50 [4]: 0.111 µM
TGI [4]: 0.454 µM
GI50 [9]: 0.163 µM
TGI [9]: 0.61 µM
GI50 [6]: 0.0694 µM
TGI [6]: 0.166 µM
GI50 [7]: 0.135 µM
TGI [7]: 0.458 µM
GI50 [8]: 0.43 µM
TGI [8]: 0.889 µM

CCOC(=O)Nc1cc2nnc(-c3ccccc3)nc2c(N)n1
TGI [1]: 27.1 µM
TGI [2]: 40.5 µM
TGI [4]: > 100 µM
TGI [5]: 76.4 µM
TGI [9]: 15.2 µM
TGI [6]: 35.7 µM
TGI [7]: > 100 µM
TGI [8]: 84.7 µM

COc1cc(/C=C/c2ccncc2)cc(OC)c1OC
TGI [1]: > 100 µM
TGI [2]: > 100 µM
TGI [4]: > 100 µM
TGI [5]: > 100 µM
TGI [9]: > 100 µM
TGI [6]: > 100 µM
TGI [7]: > 100 µM
TGI [8]: 83.1 µM
